{"source": "paper PMC6461495", "about": "(ACS infectious diseases, 2019)", "test_system": "synchronous late-stage P. falciparum iRBC", "type": "cell-based, Plasmodium falciparum CS2", "settings": "late-stage iRBC, 1, 2, 5, 10, 15 or 20 μM, 24 h post-treatment, flow cytometry", "data": [{"substance": "FAM-βAla-ILGST*LKG*AQQTSAFLK (sidechain bridge or staple) [JDD scramble]", "values": [{"measurement": "effect on parasite viability at any concentration tested", "value": "no effect on parasite viability"}]}]}
